Data taken from patent publication US9493448B2, “Cycloalkane derivatives” (Daiichi Sankyo Company, Limited, priority 2012, dated 2016).

Assays:
[1] = system: mice and rats affected by thermal hyperalgesia; experiment: Thermal hyperalgesia assay; assay type: in vivo; conditions: oral administration, constant dose, against the vehicle treatment group; latency to escape behaviors after thermal stimulation of hind paw;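 further: measurement times set by the study director and not disclosed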
hNav 1.7 = hNav 1.7 (Homo sapiens (Human), UniProt Q15858); experiment: Electrophysiological evaluation, automated patch clamp IonWorks Quattro (Population Patch Clamp mode); assay type: cell-based; conditions: HEK293A cells stably expressing hNav 1.7/β1/β2; response to second depolarization pulse, pre-pulse potential set to V1/2; read-out: hNav1.7 IC50
Sequence of hNav 1.7 (Q15858 whole entry): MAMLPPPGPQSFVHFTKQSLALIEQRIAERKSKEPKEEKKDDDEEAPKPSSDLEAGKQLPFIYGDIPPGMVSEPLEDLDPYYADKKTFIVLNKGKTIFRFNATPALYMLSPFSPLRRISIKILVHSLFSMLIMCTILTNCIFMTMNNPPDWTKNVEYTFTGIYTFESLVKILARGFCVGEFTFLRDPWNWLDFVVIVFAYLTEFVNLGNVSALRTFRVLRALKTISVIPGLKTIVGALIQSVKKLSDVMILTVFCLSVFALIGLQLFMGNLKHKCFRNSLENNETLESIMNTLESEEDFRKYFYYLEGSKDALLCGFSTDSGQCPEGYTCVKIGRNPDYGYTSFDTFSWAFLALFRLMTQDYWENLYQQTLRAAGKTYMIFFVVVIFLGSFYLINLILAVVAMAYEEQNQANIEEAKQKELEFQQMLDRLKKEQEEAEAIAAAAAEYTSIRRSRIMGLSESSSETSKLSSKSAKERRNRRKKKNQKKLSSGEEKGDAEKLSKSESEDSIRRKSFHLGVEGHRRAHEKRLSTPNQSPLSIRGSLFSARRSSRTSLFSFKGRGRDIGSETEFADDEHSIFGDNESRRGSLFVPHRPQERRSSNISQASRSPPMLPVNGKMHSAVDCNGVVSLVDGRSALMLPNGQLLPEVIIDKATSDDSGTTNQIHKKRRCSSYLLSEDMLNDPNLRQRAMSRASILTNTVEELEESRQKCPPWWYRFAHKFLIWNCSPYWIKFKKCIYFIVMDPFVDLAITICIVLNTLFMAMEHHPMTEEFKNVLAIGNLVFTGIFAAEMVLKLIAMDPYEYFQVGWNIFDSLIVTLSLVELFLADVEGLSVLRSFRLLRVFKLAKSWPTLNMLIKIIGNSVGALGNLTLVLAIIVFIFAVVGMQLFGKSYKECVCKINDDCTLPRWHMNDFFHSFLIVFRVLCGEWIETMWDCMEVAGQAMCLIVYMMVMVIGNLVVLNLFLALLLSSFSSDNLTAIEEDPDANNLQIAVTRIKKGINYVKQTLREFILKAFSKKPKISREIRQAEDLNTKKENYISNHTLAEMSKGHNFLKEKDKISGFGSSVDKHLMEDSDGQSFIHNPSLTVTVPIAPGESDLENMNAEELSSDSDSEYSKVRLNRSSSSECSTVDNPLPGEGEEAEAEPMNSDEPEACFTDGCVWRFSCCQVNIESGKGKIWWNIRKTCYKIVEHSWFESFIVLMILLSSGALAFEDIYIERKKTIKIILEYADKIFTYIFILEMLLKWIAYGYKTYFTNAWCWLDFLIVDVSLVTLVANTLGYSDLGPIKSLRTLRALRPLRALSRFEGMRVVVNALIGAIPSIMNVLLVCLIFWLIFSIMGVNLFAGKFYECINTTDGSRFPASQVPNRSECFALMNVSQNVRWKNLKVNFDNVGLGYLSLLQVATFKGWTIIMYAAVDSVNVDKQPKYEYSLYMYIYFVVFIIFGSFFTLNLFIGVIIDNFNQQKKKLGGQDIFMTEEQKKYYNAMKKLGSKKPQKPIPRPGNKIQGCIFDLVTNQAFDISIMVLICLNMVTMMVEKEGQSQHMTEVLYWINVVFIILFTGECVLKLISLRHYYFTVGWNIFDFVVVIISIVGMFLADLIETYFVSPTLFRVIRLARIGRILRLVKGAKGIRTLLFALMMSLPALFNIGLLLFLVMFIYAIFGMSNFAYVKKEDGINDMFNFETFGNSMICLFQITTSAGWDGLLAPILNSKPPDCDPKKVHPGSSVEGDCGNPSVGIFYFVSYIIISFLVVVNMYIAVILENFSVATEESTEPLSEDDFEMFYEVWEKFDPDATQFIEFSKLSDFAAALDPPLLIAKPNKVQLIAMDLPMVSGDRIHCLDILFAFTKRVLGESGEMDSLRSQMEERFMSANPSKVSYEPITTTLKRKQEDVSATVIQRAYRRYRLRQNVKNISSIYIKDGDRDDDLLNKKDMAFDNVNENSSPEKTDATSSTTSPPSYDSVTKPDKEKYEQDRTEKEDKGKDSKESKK
Sequence of hNav 1.7 (Q07699 19-218 partner): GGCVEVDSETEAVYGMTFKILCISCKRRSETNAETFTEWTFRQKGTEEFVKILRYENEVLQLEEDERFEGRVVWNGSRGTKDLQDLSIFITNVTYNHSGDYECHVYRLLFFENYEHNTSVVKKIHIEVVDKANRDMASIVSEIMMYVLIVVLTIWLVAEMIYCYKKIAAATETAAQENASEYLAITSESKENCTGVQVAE
Sequence of hNav 1.7 (O60939 30-215 partner): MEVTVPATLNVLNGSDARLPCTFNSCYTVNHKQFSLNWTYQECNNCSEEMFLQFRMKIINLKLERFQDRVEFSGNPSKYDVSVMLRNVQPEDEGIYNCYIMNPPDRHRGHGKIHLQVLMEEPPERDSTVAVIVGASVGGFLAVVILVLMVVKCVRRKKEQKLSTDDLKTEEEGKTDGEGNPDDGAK

SMILES	IC50 (hNav 1.7) [nM]	Ratio of improving pain score (%) [1]
Cn1nccc1[C@H]1C[C@H](OCc2ccccc2)C[C@@H]1Oc1cc(F)c(S(=O)(=O)Nc2ccncn2)cc1F (relative stereo) [Example 98, 4-{[(1S*,2R*,4S*)-4-(Benzyloxy)-2-(1-methyl-1H-pyrazol-5-yl)cyclopentyl]oxy}-2,5-difluoro-N-(pyrimidin-4-yl)benzenesulfonamide]	46	C (“C” when the rate was 0 to 30%)
Cc1cc(S(=O)(=O)Nc2ccncn2)c(F)cc1O[C@H]1CCC[C@@H]1c1cn[nH]c1 (relative stereo) [Example 101, 2-Fluoro-5-methyl-4-{[(1S*,2R*)-2-(1H-pyrazol-4-yl)cyclopentyl]oxy}-N-(pyrimidin-4-yl)benzenesulfonamide]	180	B (“B” when the rate was 31 to 60%)
O=S(=O)(Nc1ccncn1)c1cc(F)c(O[C@H]2CC(F)(F)CC[C@@H]2c2cn[nH]c2)cc1F (relative stereo) [Example 103, 4-{[(1S*,2R*)-5,5-Difluoro-2-(1H-pyrazol-4-yl)cyclohexyl]oxy}-2,5-difluoro-N-(pyrimidin-4-yl)benzenesulfonamide]	320	B (“B” when the rate was 31 to 60%)
O=S(=O)(Nc1ccncn1)c1c(F)cc(O[C@H]2CC(F)(F)CC[C@@H]2c2cn[nH]c2)cc1F (relative stereo) [Example 104, 4-{[(1S*,2R*)-5,5-Difluoro-2-(1H-pyrazol-4-yl)cyclohexyl]oxy}-2,6-difluoro-N-(pyrimidin-4-yl)benzenesulfonamide]	71	B (“B” when the rate was 31 to 60%)
Cn1nccc1[C@H]1CC(F)(F)C[C@@H]1Oc1cc(F)c(S(=O)(=O)Nc2ccncn2)cc1F (relative stereo) [Example 107, 4-{[(1S*,2R*)-4,4-Difluoro-2-(1-methyl-1H-pyrazol-5-yl)cyclopentyl]oxy}-2,5-difluoro-N-(pyrimidin-4-yl)benzenesulfonamide]	42	B (“B” when the rate was 31 to 60%)
O=S(=O)(Nc1ccncn1)c1ccc(O[C@H]2CCCC[C@@H]2c2cn[nH]c2)cc1F (relative stereo) [Example 108, 2-Fluoro-4-{[(1S*,2R*)-2-(1H-pyrazol-4-yl)cyclohexyl]oxy}-N-(pyrimidin-4-yl)benzenesulfonamide]	1700	A (“A” when the rate was 61 to 100%)
Cn1nccc1[C@H]1CCC[C@@H]1Oc1cc(F)c(S(=O)(=O)Nc2ccnc(F)n2)c(F)c1 (relative stereo) [Example 111, 2,6-Difluoro-N-(2-fluoropyrimidin-4-yl)-4-{[(1S*,2R*)-2-(1-methyl-1H-pyrazol-5-yl)cyclopentyl]oxy}benzenesulfonamide]	30	A (“A” when the rate was 61 to 100%)

Now from value to compound, other results behind:

IC50 (hNav 1.7) [nM]	SMILES	Ratio of improving pain score (%) [1]
220	Cn1nccc1[C@H]1CCC(F)(F)C[C@@H]1Oc1ccc(S(=O)(=O)Nc2ccncn2)c(F)c1F (relative stereo) [Example 105, 4-{[(1S*,2R*)-5,5-Difluoro-2-(1-methyl-1H-pyrazol-5-yl)cyclohexyl]oxy}-2,3-difluoro-N-(pyrimidin-4-yl)benzenesulfonamide]	A (“A” when the rate was 61 to 100%)
50	Cn1nccc1[C@H]1CCC(F)(F)C[C@@H]1Oc1cc(F)c(S(=O)(=O)Nc2ccncn2)c(F)c1 (relative stereo) [Example 109, 4-{[(1S*,2R*)-5,5-Difluoro-2-(1-methyl-1H-pyrazol-5-yl)cyclohexyl]oxy}-2,6-difluoro-N-(pyrimidin-4-yl)benzenesulfonamide]	B (“B” when the rate was 31 to 60%)
300	Cn1nccc1[C@H]1CCC(F)(F)C[C@@H]1Oc1ccc(S(=O)(=O)Nc2ccncn2)c(F)c1 (relative stereo) [Example 110, 4-{[(1S*,2R*)-5,5-Difluoro-2-(1-methyl-1H-pyrazol-5-yl)cyclohexyl]oxy}-2-fluoro-N-(pyrimidin-4-yl)benzenesulfonamide]	B (“B” when the rate was 31 to 60%)
